# Measurements: patent US8586611B2 (priority 2005, dated 2013)
# What was measured:
# Assay type in all cases: in vivo
# Phytophthora infestans [1] = assay: whole plant or invertebrate; conditions: tomato late blight; spray the day before inoculation; compounds without asterisk (not 40 or 10 ppm)
# [2] = system: Pseudoperonospora cubensis; assay: Test F: cucumber downy mildew, DMSO/acetone/water test suspension, spray the day before inoculation (disease rating, 100 = 100% disease control); conditions: DMSO/acetone/water suspension, spray the day before inoculation, compounds without asterisk
# Excerpt: The test compounds were first dissolved in dimethyl sulfoxide (DMSO) in an amount equal to 4% of the final volume and then suspended at the desired concentration (in ppm) in acetone and purified water (30/70 mix by volume). The resulting test suspensions were then used in test F. Spraying a 250 ppm test suspension on the test plants was the equivalent of a rate of 250 g/ha.
# The test suspension was sprayed on cucumber seedlings. The following day the seedlings were inoculated with a spore suspension of Pseudoperonospora cubensis (the causal agent of cucumber downy mildew) and incubated in a saturated atmosphere at 20° C. for 24 h, and then moved to a growth chamber at 20° C. for 6 days, after which disease ratings were made.
# Results for Tests A-F are given in Table A. In the table, a rating of 100 indicates 100% disease control and a rating of 0 indicates no disease control (relative to the controls). A dash (-) indicates no test results.
# [3] = system: Erysiphe graminis f. sp. tritici; assay: Test E: wheat powdery mildew, spray the day before inoculation (disease rating, 100 = 100% disease control); conditions: spray the day before inoculation, compounds without asterisk (not 40 or 10 ppm)
# In short: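 Protective test: spores of E. graminis f. sp. tritici dusted on wheat seedlings one day after run-off spraying of test suspension (acetone/water with 250 ppm surfactant; 200 ppm = 500 g/ha). Ratings after 7 days in growth chamber at 20° C, 100 = full control, 0 = none, relative to controls.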
# Phytophthora infestans [4] = assay: whole plant or invertebrate; conditions: tomato late blight; spray 17 h after inoculation; compounds without asterisk (not 40 or 10 ppm)
# Plasmopara viticola = assay: Test B: grape downy mildew, spray 24 h after inoculation (disease rating, 100 = 100% disease control); conditions: spray 24 h after inoculation, compounds without asterisk (not 40 or 10 ppm)
# In short: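 This is a curative spray test, applied 24 h after inoculation. Compounds in 50/50 acetone–water with 250 ppm Trem 014 surfactant were sprayed to run-off on P. viticola-infected seedlings, with 200 ppm equating to 500 g/ha. Plants were kept 5 days in a 20 °C growth chamber, then 24 h humid, and scored 0–100 for disease control relative to controls.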
Compound,"Test C disease rating (100 = 100% disease control, 0 = no disease control) (Phytophthora infestans [1])","Test F disease rating (100 = 100% disease control, 0 = no disease control) [2]","Test E disease rating (100 = 100% disease control, 0 = no disease control) [3]","Test D disease rating (100 = 100% disease control, 0 = no disease control) (Phytophthora infestans [4])","Test B disease rating (100 = 100% disease control, 0 = no disease control) (Plasmopara viticola)"
Cc1ccc(C)c(CC(=O)N2CCC(c3nc(C(=O)N(C)[C@@H](C)c4ccccc4)cs3)CC2)c1 [compound 68],100%,95%,0%,16%,47%
COc1cccc([C@@H](C)N(C)C(=O)c2csc(C3CCN(C(=O)Cc4cc(C)ccc4C)CC3)n2)c1 [compound 69],100%,100%,29%,0%,88%
CC(c1ccccn1)N(C)C(=O)c1csc(C2CCN(C(=O)Cc3cccc(C(F)(F)F)c3)CC2)n1 (centres unmarked) [compound 75],100%,0%,0%,72%,16%
C[C@H](c1ccccc1)N(C)C(=O)c1csc(C2CCN(C(=O)Cc3cc(Cl)ccc3Cl)CC2)n1 [compound 77],100%,50%,88%,100%,100%
Cc1ccc(F)cc1CC(=O)N1CCC(c2nc(C(=O)N(C)[C@H](C)c3ccccc3)cs2)CC1 [compound 80],100%,49%,29%,70%,99%
COc1ccc(Br)cc1CC(=O)N1CCC(c2nc(C(=O)N(C)[C@H](C)c3ccccc3)cs2)CC1 [compound 81],100%,50%,0%,100%,100%
CCCC(c1ccccc1)N(C)C(=O)c1csc(C2CCN(C(=O)Cc3cc(C)ccc3C)CC2)n1 (centres unmarked) [compound 82],97%,93%,55%,53%,100%
C[C@H](c1ccccc1)N(C)C(=O)c1csc(C2CCN(C(=O)Cc3cc(Cl)ccc3Br)CC2)n1 [compound 86],99%,86%,0%,100%,99%
C[C@H](c1ccccc1)N(C)C(=O)c1csc(C2CCN(C(=O)Cc3cc(C(F)(F)F)ccc3C(F)(F)F)CC2)n1 [compound 87],88%,100%,0%,8%,79%
Cc1ccc(C)c(CC(=O)N2CCC(c3nc(C(=O)N(C)C(C)c4cccs4)cs3)CC2)c1 (centres unmarked) [compound 89],99%,93%,43%,99%,100%
Cc1nc(CC(=O)N2CCC(c3nc(C(=O)N(C)[C@H](C)c4ccccc4)cs3)CC2)c(C)s1 [compound 92],100%,100%,0%,100%,83%
Cc1ccc(C)c(CC(=O)N2CCC(c3nc(C(=O)N(C)C(C)c4ccccn4)cs3)CC2)c1 (centres unmarked) [compound 94],100%,93%,0%,100%,0%
Cc1ccc(C)c(CC(=O)N2CCC(c3nc(C(=O)N(C)C(C)c4cccnc4)cs3)CC2)c1 (centres unmarked) [compound 95],100%,97%,0%,83%,0%
CCc1cccc(CC(=O)N2CCC(c3nc(C(=O)N(C)[C@H](C)c4ccccc4)cs3)CC2)c1 [compound 119],99%,100%,89%,33%,95%
Cc1ccc(C(F)(F)F)cc1CC(=O)N1CCC(c2nc(C(=O)N(C)[C@H](C)c3ccccc3)cs2)CC1 [compound 124],100%,90%,71%,0%,100%
COc1ccc(C)cc1CC(=O)N1CCC(c2nc(C(=O)N(C)[C@H](C)c3ccccc3)cs2)CC1 [compound 125],100%,100%,94%,99%,100%
Cc1cc(C(F)(F)F)nn1CC(=O)N1CCC(c2nc(C(=O)N(C)[C@H](C)c3ncc(Cl)cc3Cl)cs2)CC1 [compound 143],100%,50%,0%,99%,69%
C[C@H](c1ccccc1)N(C)C(=O)c1coc(C2CCN(C(=O)Nc3cccc(C(F)(F)F)c3)CC2)n1 [compound 158],95%,90%,0%,0%,9%
COc1ccc(C)cc1NC(=S)N1CCC(c2nc(C(=O)N(C)[C@H](C)c3ccccc3)cs2)CC1 [compound 159],99%,93%,73%,91%,95%
C[C@H](c1ccccc1)N(C)C(=O)c1csc(C2CCN(C(=S)Nc3cccc(C(F)(F)F)c3)CC2)n1 [compound 160],40%,50%,0%,0%,47%
Cc1ccc(C)c(CC(=O)N2CCC(c3nc(C(=O)N(C)Cc4ccccc4)cs3)CC2)c1 [compound 167],97%,99%,0%,0%,27%
Cc1ccc(C)c(CC(=O)N2CCC(c3nc(C(=O)N(C)C4CSCc5ccccc54)cs3)CC2)c1 (centres unmarked) [compound 172],100%,99%,0%,100%,43%
